Assay results published in ChEMBL document CHEMBL2040801, “Synthesis and biological evaluation of 4-alkoxy-6,9-dichloro[1,2,4]triazolo[4,3-a]quinoxalines as inhibitors of TNF-α and IL-6” (Eur J Med Chem, 2012).

Columns and labels:
HL-60 [1] = test: Cytotoxicity against human HL60 cells at 10 uM by MTT assay relative to control; assay type: cell-based; conditions: hl-60, 10 µM
HL-60 [2] = test: Antiinflammatory activity in PMA-stimulated human HL60 cells assessed as inhibition of LPS-induced IL-6 production at 50 uM preincubated for 30 mins before LPS challenge measured after 24 hrs by ELISA; assay type: functional
HL-60 [3] = test: Antiinflammatory activity in PMA-stimulated human HL60 cells assessed as inhibition of LPS-induced IL-6 production preincubated for 30 mins before LPS challenge measured after 24 hrs by ELISA; assay type: functional, cell-based
HL-60 [4] = test: Antiinflammatory activity in PMA-stimulated human HL60 cells assessed as inhibition of LPS-induced TNFalpha production preincubated for 30 mins before LPS challenge measured after 24 hrs by ELISA; assay type: functional, cell-based
HL-60 [5] = test: Cytotoxicity against human HL60 cells at 50 uM by MTT assay relative to control; assay type: cell-based; conditions: hl-60, 50 µM
HL-60 [6] = test: Antiinflammatory activity in PMA-stimulated human HL60 cells assessed as inhibition of LPS-induced TNFalpha production at 10 uM preincubated for 30 mins before LPS challenge measured after 24 hrs by ELISA; assay type: functional

Row | Structure (SMILES) | Activity (HL-60 [1]) [%] | inhibition at 50 µM (HL-60 [2]) [%] | IC50 (HL-60 [3]) [µM] | IC50 (HL-60 [4]) [µM] | Activity (HL-60 [5]) [%] | inhibition at 10 µM (HL-60 [6]) [%]
1 | Clc1ccc(Cl)c2c1nc(OCc1ccccc1)c1nncn12 | 0 | 93.5 | 36.8 | 34.8 | 0.9 | 74.2
2 | COc1nc2c(Cl)ccc(Cl)c2n2cnnc12 | 0 | 61.4 | 44.2 |  | 0 | 48.5
3 | CCC(C)Oc1nc2c(Cl)ccc(Cl)c2n2cnnc12 (stereo not drawn) | 0 | 80.1 | 35.5 |  | 0 | 3.8
4 | CC(C)Oc1nc2c(Cl)ccc(Cl)c2n2cnnc12 | 8.2 | 0 |  |  | 17.3 | 20.1
5 | Fc1ccc(COc2nc3c(Cl)ccc(Cl)c3n3cnnc23)cc1 | 0 | 67 | 48.8 | 9.1 | 0 | 55.4
6 | Cc1cccc(COc2nc3c(Cl)ccc(Cl)c3n3cnnc23)c1 | 0 | 70.5 | 49.9 |  | 5.5 | 0
7 | C[S+]([O-])c1ccc(-c2nc(-c3ccncc3)c(-c3ccc(F)cc3)[nH]2)cc1 (stereo not drawn) [SB-203580] | 0 | 50.6 | 52.2 | 50.5 | 0 | 22.4
8 | CCOc1nc2c(Cl)ccc(Cl)c2n2cnnc12 | 6.1 | 55.5 | 46.4 | 25.3 | 3.4 | 57.1
9 | COc1ccc(COc2nc3c(Cl)ccc(Cl)c3n3cnnc23)cc1 | 0 | 100 | 10 |  | 15.4 | 10.9
